In PubChem BioAssay (NCI):
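Step 1: Grow cells in 96-well plates. Step 2: Expose to compound for 48 hours at 5 concentrations. Step 3: Interpolate endpoints linearly; if unreached, use highest concentration. GI50 marks 50% less growth. TGI denotes the concentration required for complete inhibition of growth.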

Columns and labels:
Test in all cases: NCI-60 cell line screen, 48 h
[1] = test system: 786-0 renal
[2] = test system: A498 renal
[3] = test system: A549 NSCLC
[4] = test system: ACHN renal
[5] = test system: BT-549 breast
[6] = test system: CAKI-1 renal
[7] = test system: CCRF-CEM leukemia
[8] = test system: COLO 205 colon
[9] = test system: DU-145 prostate
[10] = test system: EKVX NSCLC
[11] = test system: HCC-2998 colon
[12] = test system: HCT-116 colon
[13] = test system: HCT-15 colon
[14] = test system: HL-60(TB) leukemia
[15] = test system: HOP-62 NSCLC
[16] = test system: HOP-92 NSCLC
[17] = test system: HS 578T breast
[18] = test system: HT29 colon
[19] = test system: IGROV1 ovarian
[20] = test system: K-562 leukemia
[21] = test system: KM12 colon
[22] = test system: LOX IMVI melanoma
[23] = test system: M14 melanoma
[24] = test system: MALME-3M melanoma
[25] = test system: MCF7 breast
[26] = test system: MDA-MB-231 breast
[27] = test system: MDA-MB-435
[28] = test system: MOLT-4 leukemia
[29] = test system: NCI-H226 lung
[30] = test system: NCI-H23 lung
[31] = test system: NCI-H460 lung
[32] = test system: NCI-H522 lung
[33] = test system: NCI/ADR-RES ovarian
[34] = test system: OVCAR-3 ovarian
[35] = test system: OVCAR-4 ovarian
[36] = test system: OVCAR-5 ovarian
[37] = test system: OVCAR-8 ovarian
[38] = test system: PC-3 prostate
[39] = test system: RPMI-8226 leukemia
[40] = test system: RXF 393 renal
[41] = test system: SF-268 CNS
[42] = test system: SF-295 CNS
[43] = test system: SF-539 CNS
[44] = test system: SK-MEL-2 melanoma
[45] = test system: SK-MEL-28 melanoma
[46] = test system: SK-MEL-5 melanoma
[47] = test system: SK-OV-3 ovarian
[48] = test system: SN12C renal
[49] = test system: SNB-19 CNS
[50] = test system: SNB-75 CNS
[51] = test system: SR leukemia
[52] = test system: SW-620 colon
[53] = test system: T-47D breast
[54] = test system: TK-10 renal
[55] = test system: U251 CNS
[56] = test system: UACC-257 melanoma
[57] = test system: UACC-62 melanoma
[58] = test system: UO-31 renal

Question: What does the source list for `O=C(N/N=C/c1ccc([N+](=O)[O-])o1)c1[nH]c2ccc(Br)cc2c1-c1ccccc1`?
Answer: GI50 [1]: 367 nM; TGI [1]: 4750 nM; GI50 [2]: 7450 nM; TGI [2]: 24400 nM; GI50 [3]: 354 nM; TGI [3]: 11800 nM; GI50 [4]: 379 nM; TGI [4]: 6110 nM; GI50 [5]: 222 nM; TGI [5]: 694 nM; GI50 [6]: 382 nM; TGI [6]: 9370 nM; GI50 [7]: 414 nM; TGI [7]: 45800 nM; GI50 [8]: 244 nM; TGI [8]: 577 nM; GI50 [9]: 406 nM; TGI [9]: 12200 nM; GI50 [10]: 1120 nM; TGI [10]: 9140 nM; GI50 [11]: 367 nM; TGI [11]: 1600 nM; GI50 [12]: 182 nM; TGI [12]: 980 nM; GI50 [13]: 230 nM; TGI [13]: 987 nM; GI50 [14]: 235 nM; TGI [14]: 626 nM; GI50 [15]: 541 nM; TGI [15]: 5360 nM; GI50 [16]: 733 nM; TGI [16]: 4390 nM; GI50 [17]: 519 nM; TGI [17]: 14600 nM; GI50 [18]: 307 nM; TGI [18]: 1270 nM; GI50 [19]: 340 nM; TGI [19]: 10900 nM; GI50 [20]: 118 nM; TGI [20]: > 100000 nM; GI50 [21]: 410 nM; TGI [21]: 11600 nM; GI50 [22]: 190 nM; TGI [22]: 1610 nM; GI50 [23]: 274 nM; TGI [23]: 1160 nM; GI50 [24]: 682 nM; TGI [24]: 3320 nM; GI50 [25]: 110 nM; TGI [25]: 5530 nM; GI50 [26]: 288 nM; TGI [26]: 1050 nM; GI50 [27]: 111 nM; TGI [27]: 293 nM; GI50 [28]: 356 nM; TGI [28]: 10600 nM; GI50 [29]: 306 nM; TGI [29]: 1560 nM; GI50 [30]: 393 nM; TGI [30]: 4160 nM; GI50 [31]: 331 nM; TGI [31]: 1000 nM; GI50 [32]: 37.4 nM; TGI [32]: 345 nM; GI50 [33]: 234 nM; TGI [33]: 2830 nM; GI50 [34]: 433 nM; TGI [34]: 4090 nM; GI50 [35]: 720 nM; TGI [35]: 10500 nM; GI50 [36]: 439 nM; TGI [36]: 14000 nM; GI50 [37]: 241 nM; TGI [37]: 677 nM; GI50 [38]: 400 nM; TGI [38]: 6390 nM; GI50 [39]: 357 nM; TGI [39]: 12800 nM; GI50 [40]: 294 nM; TGI [40]: 1090 nM; GI50 [41]: 564 nM; TGI [41]: 11000 nM; GI50 [42]: 189 nM; TGI [42]: 1230 nM; GI50 [43]: 177 nM; TGI [43]: 514 nM; GI50 [44]: 335 nM; TGI [44]: 1700 nM; GI50 [45]: 1170 nM; TGI [45]: 7190 nM; GI50 [46]: 235 nM; TGI [46]: 638 nM; GI50 [47]: 501 nM; TGI [47]: 8370 nM; GI50 [48]: 323 nM; TGI [48]: 1980 nM; GI50 [49]: 337 nM; TGI [49]: 12100 nM; GI50 [50]: 216 nM; TGI [50]: 1550 nM; GI50 [51]: 143 nM; TGI [51]: 9090 nM; GI50 [52]: 359 nM; TGI [52]: 1970 nM; GI50 [53]: 1790 nM; TGI [53]: 24000 nM; GI50 [54]: 1530 nM; TGI [54]: 10100 nM; GI50 [55]: 303 nM; TGI [55]: 1560 nM; GI50 [56]: 542 nM; TGI [56]: 4350 nM; GI50 [57]: 150 nM; TGI [57]: 2070 nM; GI50 [58]: 431 nM; TGI [58]: 7820 nM
